Patent US5118681A (priority 1989, dated 1992)

How the values were obtained:
[1] = test system: Pseudoperonospora cubensis; assay: whole plant or invertebrate; assay type: in vivo; conditions: in vivo
Phytophthora infestans = assay: whole plant or invertebrate; assay type: in vivo; conditions: 200 ppm application rate
Ps.ae = assay: Minimum Inhibitory Concentration Test, alternate (Table 4), Ps.ae; assay type: cell-based, Pseudomonas aerugenosa; conditions: TSB, 72 hours
Candida albicans (C.alb) = assay: Minimum Inhibitory Concentration Test, alternate (Table 4), C.alb; assay type: cell-based; conditions: TSB, 72 hours
Summary of the method: (§1)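 Compound in acetone was diluted into TSB and serially diluted 1:1 from 250 ppm down to 0.8 ppm, in duplicate. Plates were inoculated with diluted 24 h culture and incubated 3 days at 30° C; MIC recorded as lowest concentration with no growth.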

[2] = test system: Erysiphe graminis (f. sp. tritici); assay: whole plant or invertebrate; assay type: in vivo; conditions: in vivo
E.c = assay: Minimum Inhibitory Concentration Test, alternate (Table 4), E.c; assay type: cell-based, Escherichia coli; conditions: TSB, 72 hours
Summary of the method: as §1

Pseudomonas fluorescens [3] = assay: Minimum Inhibitory Concentration Test, alternate (Table 4), Ps.fl; assay type: cell-based; conditions: TSB, 72 hours, 30° C
Summary of the method: as §1

A.n = assay: Minimum Inhibitory Concentration Test, alternate (Table 4), A.n; assay type: cell-based, Aspergillus niger; conditions: TSB, 72 hours
Summary of the method: as §1

Piricularia oryzae = assay: whole plant or invertebrate; assay type: in vivo; conditions: in vivo
S.a = assay: Minimum Inhibitory Concentration Test, alternate (Table 4), S.a; assay type: cell-based, Staphylococcus aureus; conditions: TSB, 72 hours
Summary of the method: as §1

[4] = test system: Pellicularia filamentosa (f. sp. sasiki); assay: whole plant or invertebrate; assay type: in vivo; conditions: in vivo
Pseudomonas fluorescens [5] = assay: Speed of Kill Test, alternate, 24 h, synthetic hard water (Table 4); assay type: cell-based; conditions: Ps.fl in synthetic hard water, 100 ppm

## N-n-octyl-cis-3-{2-[ethyl-N-(2-thiophenylmethyl)malonamido]thio}acrylamide [Example 28]
[1]
  % control CDM: 96%
Phytophthora infestans
  % control TLB: 50%
Ps.ae
  MIC Ps.ae: 500 ppm
Candida albicans (C.alb)
  MIC C.alb: 63 ppm
[2]
  % control WPM: 0%
E.c
  MIC E.c: 500 ppm
Pseudomonas fluorescens [3]
  MIC Ps.fl: 500 ppm
A.n
  MIC A.n: 16-31 ppm
Piricularia oryzae
  % control RB: 25%
S.a
  MIC S.a: 500 ppm
[4]
  % control RSB: 0%
Pseudomonas fluorescens [5]
  SOK: > 100 ppm
